From patent publication US20090298752A1, “APLIDINE TREATMENT OF CANCERS” (PHARMA MAR, S.A., priority 1999, published 2009)
Entries after “also recorded” stand apart in the source; their conditions may differ.

Columns and labels:
[1] = tested on: human bladder cancer; assay: human bladder cancer animal models; type: in vivo; conditions: complete remissions in some animal models
Excerpt: Bladder tumours are one type of tumour over-expressing the receptor to Epithelial Growth Factor (EGF), which leads to upregulation of VEGF and the VEGF receptor. Binding of VEGF to its receptor is believed to lead to cell growth stimulation by means of transitory local calcium ion changes among other mechanisms for signalling. A compound inhibiting VEGF action is expected to be inhibitory to such tumours.

[2] = stability testing of aplidine and lyophilised dosage form; type: physicochemical; conditions: solubilised; heat and light stress testing
Procedure: In a currently preferred embodiment freeze-drying was performed from a 500 mg/mL solution of aplidine in 40% (v/v) tert-butanol in Water for Injection (WfI) containing 25 mg/mL D-mannitol as bulking agent.

[3] = tested on: primary gastric tumour specimens; assay: in vitro activity on primary gastric tumour specimens; type: cell-based, human
Procedure: (§1) Different model systems were evaluated to provide the basis for further clinical work. Selective antitumour activities were seen against two histologically different solid tumours: human gastric and prostate carcinomas. Potent in vitro activity to primary gastric tumour specimens or Hs746T gastric tumour cells is evident with IC30 values of 146 and 450 pM, respectively. […] activities were evaluated in nude rodents using sc implanted tumour fragments or hollow fibres (HF) containing tumour cells.

[4] = tested on: Gastric MRI-H254; assay: sc hollow fibre (HF), gastric tumour cells, rat; type: in vivo; conditions: 24 hr.iv inf., 0.7 mg/kg
Procedure: as §1
Follow-up studies necessitated using rats for iv infusions. With this variation, a 24 hr iv infusion schedule produced similar activities against HF gastric (20%) and HF prostate (31%) tumour cells. Cytotoxicity was also found using a 5 day iv infusion schedule against HF prostate tumour cells (33%).

[5] = tested on: MOLT-4 cells; assay: activity of aplidine on MOLT-4 cells with VEGF added; type: cell-based, human; conditions: VEGF 10 ng/ml, 10% FCS, low concentrations of aplidine
[6] = tested on: VEGF mRNA; assay: VEGF mRNA levels in IGROV-1; type: cell-based, human
[7] = tested on: VEGF promoter; assay: VEGF promoter activity, luciferase/renilla reporter gene system; type: cell-based; conditions: FIG. 13
[8] = Phase I, 24 h infusion every 2 weeks: toxicity and pharmacokinetics; type: in vivo, human
Procedure: Aplidine is given as a 24 hour infusion every 2 weeks. The starting dose was 200 μg/m^2/d and dose escalation proceed including so far 400, 800, 1600, and 3200 μg/m^2/d. A total of 18 patients (M/F: 7/11, median age 52, OMS 0/1:10/8) have been entered. […] Among evaluable patients, toxicity consisted of mild grade I-II nausea/vomiting, grade I-II asthenia, and cramping occurring during or immediately after the infusion. No neuromuscular toxicity were reported at the evaluated doses. One patient with an advanced lung cancer and documented tumour progression at the dose of 1600 μg/m^2 developed a haemolytic anaemia and thrombocytopenia that was considered unlikely related to the study drug. […] An open 2-compartment model fits appropriately most plasma concentration profiles. […] The accrual is ongoing to determine the dose limiting toxicity and the dose to be recommended in phase II studies.
Aplidine was given to patients with solid tumour/NHL as a 24 hr infusion/q2w to 35 patients (median: age=51/ECOG=1) with solid tumour (32 pts) or NHL (3 pts). 23/35 patients were previously exposed to ≧3 previous lines of chemotherapy. Nine dose levels (200-7000 μg/m^2/w/q2w) and 65 cycles (120 infusions) were given. […] Toxicity consisted of G2-3 asthenia and emesis in 9-2 patients and 12-1 pts, respectively. G3 nausea/vomiting (≧5000 μg/m^2) was efficiently treated then prevented with 4HT3-regimens. […] At the dose of 5000 μg/m^2/w/q2w, 2 patients experienced transient muscle cramps with reversible G3 CPK-MM elevations. Among 9 patients treated at 6000 μg/m^2/w, 3 patients experienced an increase of CPK-MM and aldolase after the 3rd injection of aplidine. CPK elevations were G1-2 and not symptomatic in 2 patients but a G3 CPK elevation with G3 muscular pain and loss of muscle strength (DLT) was reported in 1 pt. This was reversible with no sequel. […] Ultrastructural electron microscopy indicated no morphological mitochondria alteration but a lost of the thick myosin filaments. At 7000 μg/m^2/q2w, 4 patients have been entered. […] Mechanistic hypothesis and preventive strategies against muscle toxicity are under evaluation.

[9] = target: T1, ornithine decarboxylase (Homo sapiens, UniProt P11926); conditions: all three cell lines; cited from earlier work
T1 construct: endogenous in cells; host or cells: CT-1, CT-2 and HT-29 colon cell lines
T1 sequence (P11926 whole entry): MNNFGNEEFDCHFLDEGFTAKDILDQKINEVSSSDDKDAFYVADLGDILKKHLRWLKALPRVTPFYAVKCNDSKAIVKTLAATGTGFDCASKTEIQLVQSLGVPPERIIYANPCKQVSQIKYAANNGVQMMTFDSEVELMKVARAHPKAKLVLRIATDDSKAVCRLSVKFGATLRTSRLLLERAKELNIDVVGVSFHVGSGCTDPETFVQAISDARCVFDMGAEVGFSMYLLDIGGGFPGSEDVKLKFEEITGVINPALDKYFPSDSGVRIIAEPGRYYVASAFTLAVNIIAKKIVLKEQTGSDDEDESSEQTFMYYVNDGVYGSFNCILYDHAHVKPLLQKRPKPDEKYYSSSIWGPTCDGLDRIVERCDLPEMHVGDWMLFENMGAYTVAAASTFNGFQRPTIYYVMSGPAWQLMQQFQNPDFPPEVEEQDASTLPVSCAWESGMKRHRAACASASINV

[10] = 6000 μg/m^2/w, among 9 patients
[11] = 6000 mcg/m^2/2 wks, 12 patients

aplidine
activity on human bladder cancer [1]: exceedingly high activity | degradation [2]: substantial degradation | IC30 [3]: 146 pM | Activity (% T/C.) [4]: 20 % T/C | effect of added VEGF on activity of aplidine [5]: slightly reduced the activity of low concentrations of aplidine; also recorded: partially abolish the activity of aplidine | mRNA levels of VEGF, in words [6]: reduces the mRNA levels of VEGF | promoter activity of VEGF, in words [7]: does not affect the promoter activity of VEGF | transient muscle cramps with reversible G3 CPK-MM elevations ([8]; 5000 μg/m^2/w/q2w): 2 patients | G3 CPK elevation with G3 muscular pain and loss of muscle strength (DLT) [8, 10]: 1 pt | increase of CPK-MM and aldolase after the 3rd injection [8, 10]: 3 patients | initial phase median half-life ([8]; 2-compartment model, preliminary): 38.4 min | terminal phase median half-life ([8]; 2-compartment model, preliminary, 24 h infusion): 25.8 h | Nausea/vomiting G2 (worst toxicity per patient) ([8]; 200 mcg/m^2/2 wks, 3 patients): 2 | Transaminitis G2 (worst toxicity per patient) ([8]; 200 mcg/m^2/2 wks, 3 patients): 1 | Asthenia G2 (worst toxicity per patient) ([8]; 400 mcg/m^2/2 wks, 3 patients): 2 | Hypertension G2 (worst toxicity per patient) ([8]; 400 mcg/m^2/2 wks, 3 patients): 1 | Nausea/vomiting G2 (worst toxicity per patient) ([8]; 400 mcg/m^2/2 wks, 3 patients): 1 | Flushing G1 (worst toxicity per patient) ([8]; 800 mcg/m^2/2 wks, 3 patients): 1 | Muscle cramps G1 + G2 (worst toxicity per patient) ([8]; 800 mcg/m^2/2 wks, 3 patients): 2 | Asthenia G2 (worst toxicity per patient) ([8]; 1600 mcg/m^2/2 wks, 6 patients): 2 | Asthenia G3 (worst toxicity per patient) ([8]; 1600 mcg/m^2/2 wks, 6 patients): 1 | Muscle cramps G1 + G2 (worst toxicity per patient) ([8]; 1600 mcg/m^2/2 wks, 6 patients): 1 | Nausea/vomiting G2 (worst toxicity per patient) ([8]; 1600 mcg/m^2/2 wks, 6 patients): 4 | Transaminitis G3 (worst toxicity per patient) ([8]; 1600 mcg/m^2/2 wks, 6 patients): (1) | Asthenia G2 (worst toxicity per patient) ([8]; 3200 mcg/m^2/2 wks, 3 patients): 1 | Flushing G1 (worst toxicity per patient) ([8]; 3200 mcg/m^2/2 wks, 3 patients): 1 | Muscle cramps G1 + G2 (worst toxicity per patient) ([8]; 3200 mcg/m^2/2 wks, 3 patients): 2 | Muscle pain G2 (worst toxicity per patient) ([8]; 3200 mcg/m^2/2 wks, 3 patients): (1) | Nausea/vomiting G3 (worst toxicity per patient) ([8]; 3200 mcg/m^2/2 wks, 3 patients): (1) | Asthenia G2 (worst toxicity per patient) ([8]; 4000 mcg/m^2/2 wks, 3 patients): 1 | Flushing G1 (worst toxicity per patient) ([8]; 4000 mcg/m^2/2 wks, 3 patients): 1 | Muscle cramps G1 + G2 (worst toxicity per patient) ([8]; 4000 mcg/m^2/2 wks, 3 patients): 2 | Muscle pain G1 (worst toxicity per patient) ([8]; 4000 mcg/m^2/2 wks, 3 patients): 2 | Nausea/vomiting G2 (worst toxicity per patient) ([8]; 4000 mcg/m^2/2 wks, 3 patients): 2 | Pain central catheter G2 (worst toxicity per patient) ([8]; 4000 mcg/m^2/2 wks, 3 patients): 2 | Asthenia G3 (worst toxicity per patient) ([8]; 5000 mcg/m^2/2 wks, 3 patients): (1) | CPK elevation G3 (worst toxicity per patient) ([8]; 5000 mcg/m^2/2 wks, 3 patients): (1)[1] | CPK elevation G4 (worst toxicity per patient) ([8]; 5000 mcg/m^2/2 wks, 3 patients): (1)[1] | Muscle cramps G1 + G2 (worst toxicity per patient) ([8]; 5000 mcg/m^2/2 wks, 3 patients): 2 | Muscle pain G1 (worst toxicity per patient) ([8]; 5000 mcg/m^2/2 wks, 3 patients): 1 | Muscle weakness G1 (worst toxicity per patient) ([8]; 5000 mcg/m^2/2 wks, 3 patients): 1 | Nausea/vomiting G2 (worst toxicity per patient) ([8]; 5000 mcg/m^2/2 wks, 3 patients): 1 | Transaminitis G2 (worst toxicity per patient) ([8]; 5000 mcg/m^2/2 wks, 3 patients): 1 | Asthenia G2 (worst toxicity per patient) [8, 11]: 6 | CPK elevation G2 (worst toxicity per patient) [8, 11]: 1(1) | CPK elevation G3 (worst toxicity per patient) [8, 11]: 1(1) | Muscle cramps G1 + G2 (worst toxicity per patient) [8, 11]: 1 | Muscle pain G1 (worst toxicity per patient) [8, 11]: 1 | Muscle pain G2 (worst toxicity per patient) [8, 11]: 2 | Muscle weakness G1 (worst toxicity per patient) [8, 11]: 1(1) | Muscle weakness G2 (worst toxicity per patient) [8, 11]: 1(1) | Nausea/vomiting G2 (worst toxicity per patient) [8, 11]: 2 | Asthenia G2 (worst toxicity per patient) ([8]; 7000 mcg/m^2/2 wks, 7 patients): 2 | CPK elevation G2 (worst toxicity per patient) ([8]; 7000 mcg/m^2/2 wks, 7 patients): 1 | Flushing G1 (worst toxicity per patient) ([8]; 7000 mcg/m^2/2 wks, 7 patients): 1 | Muscle pain G1 (worst toxicity per patient) ([8]; 7000 mcg/m^2/2 wks, 7 patients): 1 | Nausea/vomiting G2 (worst toxicity per patient) ([8]; 7000 mcg/m^2/2 wks, 7 patients): 1 | Neutrophenia G4 (worst toxicity per patient) ([8]; 7000 mcg/m^2/2 wks, 7 patients): 1 | Transaminitis G2 (worst toxicity per patient) ([8]; 7000 mcg/m^2/2 wks, 7 patients): 1 | terminal half-life ([8]; Example 6): 10 to 24 h | dose limiting toxicity ([8]; Example 6: 18 patients, 200-3200 μg/m^2/d): no dose limiting toxicity | clearance ([8]; Example 14): 332 ml/mm.m^2 | terminal half life ([8]; Example 14): 15 to 35 h | G2 asthenia, patients ([8]; Example 14, 35 patients): 9 patients | G2 emesis, patients ([8]; Example 14, 35 patients): 12 pts | G3 asthenia, patients ([8]; Example 14, 35 patients): 2 patients | G3 emesis, patients ([8]; Example 14, 35 patients): 1 pts | cardiac toxicity ([8]; Example 14, 35 patients): No cardiac toxicity | haematologic toxicity ([8]; Example 14, 35 patients): No haematiologic toxicity | coefficient of variation of CL ([8]; Example 18, interpatient): 62% | t ½ ([8]; Example 18, median, quartiles 15.7-35.0): 23.8 h | plasma CL ([8]; Example 18, median, quartiles 192-415): 252 mL/min/m^2 | Vss ([8]; Example 18, median, quartiles 274-638): 413 L/m^2 | Plasma concentrations 24 h after the end of infusion, comparable to efficient in vitro concentrations ([8]; doses ≧3000 μg/m^2/q2w): < 1 ng/mL | ornithine decarboxylase activity [9]: decreased ornithine decarboxylase activity
